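1) Cells in 96-well plates. 2) Compound, 48 h, 5 concentrations. 3) Linear interpolation between surrounding doses. 4) Unreached endpoint = highest concentration. At the GI50, growth is halved. The concentration for full growth arrest is given as TGI.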
Assays:
Experiment in all cases: DTP human tumour cell line panel, 48 h
NCI-H522 lung = system: NCI-H522 lung
NCI/ADR-RES ovarian = system: NCI/ADR-RES ovarian
OVCAR-3 ovarian = system: OVCAR-3 ovarian
OVCAR-4 ovarian = system: OVCAR-4 ovarian
OVCAR-5 ovarian = system: OVCAR-5 ovarian
OVCAR-8 ovarian = system: OVCAR-8 ovarian
PC-3 prostate = system: PC-3 prostate
RPMI-8226 leukemia = system: RPMI-8226 leukemia
RXF 393 renal = system: RXF 393 renal
SF-295 CNS = system: SF-295 CNS
SF-539 CNS = system: SF-539 CNS
SK-MEL-2 melanoma = system: SK-MEL-2 melanoma
SK-MEL-28 melanoma = system: SK-MEL-28 melanoma
SK-MEL-5 melanoma = system: SK-MEL-5 melanoma
SK-OV-3 ovarian = system: SK-OV-3 ovarian
SN12C renal = system: SN12C renal
SNB-75 CNS = system: SNB-75 CNS
SR leukemia = system: SR leukemia
TK-10 renal = system: TK-10 renal
U251 CNS = system: U251 CNS
UACC-257 melanoma = system: UACC-257 melanoma
UACC-62 melanoma = system: UACC-62 melanoma
UO-31 renal = system: UO-31 renal

Question: Which results are given for `CC(=O)OCC1O[C@@H]([S-])C(OC(C)=O)[C@H](OC(C)=O)[C@@H]1OC(C)=O.[Au+].c1ccc(CN2[CH-]N(Cc3ccccc3)C(c3ccccc3)=C2c2ccccc2)cc1`?
Answer: TGI (NCI-H522 lung): 3.66 µM; GI50 (NCI/ADR-RES ovarian): 5.21 µM; TGI (NCI/ADR-RES ovarian): > 100 µM; GI50 (OVCAR-3 ovarian): 1.61 µM; TGI (OVCAR-3 ovarian): 2.99 µM; GI50 (OVCAR-4 ovarian): 1.4 µM; TGI (OVCAR-4 ovarian): 3.15 µM; GI50 (OVCAR-5 ovarian): 1.92 µM; TGI (OVCAR-5 ovarian): 3.96 µM; GI50 (OVCAR-8 ovarian): 2.61 µM; TGI (OVCAR-8 ovarian): 7.38 µM; GI50 (PC-3 prostate): 1.83 µM; TGI (PC-3 prostate): 3.7 µM; GI50 (RPMI-8226 leukemia): 1.9 µM; TGI (RPMI-8226 leukemia): 4.94 µM; GI50 (RXF 393 renal): 1.63 µM; TGI (RXF 393 renal): 3.51 µM; GI50 (SF-295 CNS): 2.34 µM; TGI (SF-295 CNS): 6.31 µM; GI50 (SF-539 CNS): 1.85 µM; TGI (SF-539 CNS): 3.56 µM; GI50 (SK-MEL-2 melanoma): 1.74 µM; TGI (SK-MEL-2 melanoma): 3.43 µM; GI50 (SK-MEL-28 melanoma): 1.64 µM; TGI (SK-MEL-28 melanoma): 3.21 µM; GI50 (SK-MEL-5 melanoma): 1.79 µM; TGI (SK-MEL-5 melanoma): 3.28 µM; GI50 (SK-OV-3 ovarian): 3.39 µM; TGI (SK-OV-3 ovarian): 10.2 µM; GI50 (SN12C renal): 2.22 µM; TGI (SN12C renal): 5.58 µM; GI50 (SNB-75 CNS): 1.37 µM; TGI (SNB-75 CNS): 2.68 µM; GI50 (SR leukemia): 0.663 µM; TGI (SR leukemia): 7.8 µM; GI50 (TK-10 renal): 1.86 µM; TGI (TK-10 renal): 3.42 µM; GI50 (U251 CNS): 1.61 µM; TGI (U251 CNS): 3.09 µM; GI50 (UACC-257 melanoma): 1.84 µM; TGI (UACC-257 melanoma): 4.05 µM; GI50 (UACC-62 melanoma): 1.76 µM; TGI (UACC-62 melanoma): 3.47 µM; GI50 (UO-31 renal): 1.95 µM; TGI (UO-31 renal): 4.47 µM
